Measurements from patent publication US6291637A (priority 1999, dated 2001).
Where no end group is shown, it is not given here.

Legend:
[1] = system: cap-dependent translation (CAT RNA); format: biochemical
[2] = system: poliovirus IRES-dependent translation (P2CAT RNA); format: biochemical
[3] = system: poliovirus 5'-UTR (IRES)-mediated translation; format: biochemical

“5' GCGCGGGCAGCGCA 3' (chemistry not given here) [BI-RNA]” was tested, and the “inhibition of cap-dependent translation of CAT (pG3CAT/pCAT) RNA” value [1] was “not cap dependent-translation” and the “inhibition of poliovirus IRES-mediated translation of P2CAT RNA” value [2] was “specifically inhibiting translation by internal initiation”.

With AALEAKICHQIEYYFGDF [LAP] the “effect on cellular translation” value (cellular translation) was “does not interfere with cellular translation” and the “entry into human cells” value (PV) was “appears to freely diffuse into human cells”.

B1: La protein (protein, UniProt P05455 1-408, looked up)
Lupus La protein: MAENGDNEKMAALEAKICHQIEYYFGDFNLPRDKFLKEQIKLDEGWVPLEIMIKFNRLNRLTTDFNVIVEALSKSKAELMEISEDKTKIRRSPSKPLPEVTDEYKNDVKNRSVYIKGFPTDATLDDIKEWLEDKGQVLNIQMRRTLHKAFKGSIFVVFDSIESAKKFVETPGQKYKETDLLILFKDDYFAKKNEERKQNKVEAKLRAKQEQEAKQKLEEDAEMKSLEEKIGCLLKFSGDLDDQTCREDLHILFSNHGEIKWIDFVRGAKEGIILFKEKAKEALGKAKDANNGNLQLRNKEVTWEVLEGEVEKEALKKIIEDQQESLNKWKSKGRRFKGKGKGNKAAQPGSGKGKVQFQGKKTKFASDDEHDEHDENGATGPVKRAREETDKEEPASKQQKTENGAGDQ
With B1 the “effect on viral 5'-UTR-mediated translation” value [3] was “Significant stimulation” and the “reversal of I-RNA-mediated inhibition of translation” value [3] was “reversed”.
